US20040242591A1, “Oxazolidinone derivatives as pontential antimicrobials” (priority 2001, published 2004)

What was measured:
S.aureus ATCC 25923 = assay: MIC by agar incorporation method, S.aureus 25923; assay type: cell-based, Staphylococus aureus; design: unit not given here; details: Mueller Hinton agar, 10^4 CFU/spot, 18 hours
MRSA 15187 = assay: MIC by agar incorporation method, MRSA 15187; assay type: cell-based, Methicillin Resistant Staphylococcus aureus; design: unit not given here; details: Mueller Hinton agar, 10^4 CFU/spot, 24 hours
Excerpt: 2) MRSA 15187—Methicillin Resistant Staphylococcus aureus

MRSA 562 = assay: MIC by agar incorporation method, MRSA 562; assay type: cell-based, Methicillin Resistant Staphylococcus aureus; design: unit not given here; details: Mueller Hinton agar, 10^4 CFU/spot, 24 hours
MRSA 33 = assay: MIC by agar incorporation method, MRSA 33; assay type: cell-based, Methicillin Resistant Staphylococcus aureus; design: unit not given here; details: Mueller Hinton agar, 10^4 CFU/spot, 24 hours
Ent. faecalis ATCC 29212 = assay: MIC by agar incorporation method, E.faecalis 29212; assay type: cell-based, Enterococcus faecalis; design: unit not given here; details: Mueller Hinton agar, 10^4 CFU/spot, 18 hours
Excerpt: 3) Ent. faecalis ATCC 29212—Enterococcus faecalis ATCC 29212

VRE 6A = assay: MIC by agar incorporation method, VRE 6A; assay type: cell-based, Enterococcus faecium; design: unit not given here; details: Mueller Hinton agar, 10^4 CFU/spot, 18 hours
Excerpt: 4) Ent. faecium […]—Enterococcus faecium 6A Van®, Cipro®

Strep.pyog. ATCC 19615 = assay: MIC by agar incorporation method, S.pyogenes 19615; assay type: cell-based, Streptococcus pyogenes; design: unit not given here; details: Mueller Hinton agar, 10^4 CFU/spot, 18 hours
Excerpt: 6) Strep.pyog. ATCC 19615—Streptococcus pyogenes

Strep. pne. ATCC 6303 = assay: MIC by agar incorporation method, S. pneum 6303; assay type: cell-based, Streptococcus pneumoniae; details: Mueller Hinton agar, 10^4 CFU/spot, 18 hours
Excerpt: 5) Strep. pne. ATCC 6303—Streptococcus pneumoniae ATCC 6303

S. pneum AB 34 = assay: MIC by agar incorporation method, S. pneum AB 34; assay type: cell-based, Streptococcus pneumoniae; design: unit not given here; details: Mueller Hinton agar, 10^4 CFU/spot, 18 hours

SMILES	In Vitro (MIC) S.aureus 25923 (S.aureus ATCC 25923)	In Vitro (MIC) MRSA 15187 (MRSA 15187)	In Vitro (MIC) MRSA 562 (MRSA 562)	In Vitro (MIC) MRSA 33 (MRSA 33)	In Vitro (MIC) E.faecalis 29212 (Ent. faecalis ATCC 29212)	In Vitro (MIC) VRE 6A (VRE 6A)	In Vitro (MIC) S.pyogenes 19615 (Strep.pyog. ATCC 19615)	In Vitro (MIC) S. pneum 6303 (Strep. pne. ATCC 6303)	In Vitro (MIC) S. pneum AB 34 (S. pneum AB 34)
CC(=O)NC[C@H]1CN(c2ccc(N3CCN(C(=O)C=Cc4ccc([N+](=O)[O-])s4)CC3)c(F)c2)C(=O)O1 [Compound No. 40, (S)-N-[[3-[3-Fluoro-4-[N-1-[4-{2-thiophenoyl-(5-nitro)acrylic}]piperazinyl]phenyl]-2-oxo-5-oxazolidinyl]methyl]-acetamide]	0.5	0.25	1	0.5	1	0.5	0.5	1 µg/mL	1
O=C(CCl)NC[C@H]1CN(c2ccc(N3CCN(Cc4cc(Br)c([N+](=O)[O-])s4)CC3)c(F)c2)C(=O)O1 [Compound No. 48]	4	4	4	4	2	2	16	16 µg/mL	16
CC(=O)NC[C@H]1CN(c2ccc(N3CCN(Cc4coc([N+](=O)[O-])c4)CC3)c(F)c2)C(=O)O1 [Compound No. 8, (S)-N-[[3-[3-Fluoro-4-[N-1-[4-{3-furyl(5-nitro)methyl}]piperazinyl]phenyl]-2-oxo-5-oxazolidinyl]methyl]acetamide]	8	8	4	4	8	4	4	8 µg/mL	16
CC(=O)NC[C@H]1CN(c2ccc(N3CCCN(C(=O)c4ccc([N+](=O)[O-])s4)CC3)c(F)c2)C(=O)O1 [Compound No. 54, (S)-N-[[3-[3-Fluoro-4-[N-1-[4-{2-thiophenoyl-(5-nitro)}]homopiperazinyl]phenyl]-2-oxo-5-oxazolidinyl]methyl]acetamide]	1	0.5	0.5	0.5	1	0.5	0.25	8 µg/mL	8
CC(=O)NC[C@H]1CN(c2ccc(N3CCN(C(=O)c4ccc([N+](=O)[O-])o4)CC3C)c(F)c2)C(=O)O1 (stereo partly drawn) [Compound No. 59, (S)-N-[[3-[3-Fluoro-4-[N-1-[2-methyl-4-{2furoyl-(5-nitro)}]-piperazinyl]phenyl]-2-oxo-5-oxazolidinyl]methyl]acetamide]	2	1	1	1	1	2	8	8 µg/mL	8
CC(=O)NC[C@H]1CN(c2ccc(N3CCN(C(=O)c4cc(N(C)C)c([N+](=O)[O-])s4)CC3)c(F)c2)C(=O)O1 [Compound No. 38]	8	4	4	4	4	4	2	2 µg/mL	2
O=C(CF)NC[C@H]1CN(c2ccc(N3CCC(Cc4ccc([N+](=O)[O-])o4)CC3)c(F)c2)C(=O)O1 [Compound No. 42, (S)-N-[[3-[3-Fluoro-4-[N-1-[4-{2-furyl(5-nitro)methyl}]piperinyl]phenyl]-2-oxo-5-oxazolidinyl]methyl]-fluoroacetamide]	4	2	2	4	4	4	0.5	1 µg/mL	2
CC(=O)NC[C@H]1CN(c2ccc(N3CCC(N(C)C(=O)c4ccc([N+](=O)[O-])s4)C3)c(F)c2)C(=O)O1 (stereo partly drawn) [Compound No. 91]	<0.25	<0.25	<0.25	<0.25	0.5	1	<0.25	1 µg/mL	1
CC(=O)NC[C@H]1CN(c2ccc(N3CCN(C(=O)Cc4cccs4)C(C)C3)c(F)c2)C(=O)O1 (stereo partly drawn) [Compound No. 68, (S)-N-[[3-[3-Fluoro-4-[N-1-[3-methyl-4-{2-thienylacetyl-}]-piperazinyl]phenyl]-2-oxo-5-oxazolidinyl]methyl]acetamide]	4	4	4	4	4	4	2	4 µg/mL	4
CC(=O)NC[C@H]1CN(c2ccc(N3CCCN(C(=O)c4ccc([N+](=O)[O-])o4)CC3)c(F)c2)C(=O)O1 [Compound No. 55, (S)-N-[[3-[3-Fluoro-4-[N-1-[4-{2-furoyl-(5-nitro)}]homopiperazinyl]phenyl]-2-oxo-5-oxazolidinyl]methyl]acetamide]	2	0.5	1	2	0.25	0.25	4	8 µg/mL	8
CC(=O)NC[C@H]1CN(c2ccc(N3CCCC(=O)C3)c(F)c2)C(=O)O1 [Compound No. 96, (S)-N-[[3-{3-Fluoro-4-(3-oxo-piperidin-1-yl)-phenyl}-2-oxo-5-oxazolidinyl]methyl]acetamide]	16	16	8	16	8	8	4	4 µg/mL	4
CCN(C(=O)c1ccc([N+](=O)[O-])s1)C1CCN(c2ccc(N3C[C@H](CNC(C)=O)OC3=O)cc2F)CC1 [Compound No. 79, (S)-N-[[3-[3-Fluoro-4-[4-{N-ethyl-2-thienoyl-(5-nitro)}aminopiperidine-1-yl]phenyl]-2-oxo-5-oxazolidinyl]methyl]acetamide]	0.5	0.5	0.5	0.5	2	2	0.5	4 µg/mL	4
